Molecules are shown by their SMILES.

What all share (assay type): biochemical
In one experiment the target is CDK9/Cyclin T1 (Homo sapiens, UniProt P50750). Description: CDK9 Enzymatic Activity Assay (Lance Kinase Activity Assay, FRET). The note with it: for IC50: Table 5B, class symbols per IC50 [nM] ranges of b581, read-out: CDK9: Selectivity of CDK7 inhibition over CDK9 inhibition. On the procedure:
(§1) This protocol describes how the Lance Kinase Activity Assay was performed to determine IC50 values of compounds of general formula (I) against CDK/Cyclin complexes. The principle behind this enzymatic assay is based upon the phosphorylation of the Ulight-Peptide Substrat. It is detected by using a specific EU-labeled anti-phospho peptide antibody.
(§2) Binding of an inhibitor to the kinase prevents phosphorylation of the Ulight-MBP Substrat, resulting in a loss of FRET.
CDK9 Enzymatic Activity Assay
(§3) The compounds of general formula (I) exemplary summarized in Table 1 were diluted from a 10 mM DMSO stock solution 1:10 in a total volume of 15 μl DMSO. This compound predilution was then serial diluted 1:3 over 8 steps in DMSO and briefly spun down. Each compound solution was now diluted 1:20 in Enzymatic Buffer (HEPES: 50 mM, pH: 7.5; MgCl2: 10 mM; EGTA: 1 mM; DTT: 2 mM; Tween-20: 0.01%), mixed thoroughly and spun down.
(§4) For positive controls, 2 μl of DMSO working solution were mixed with 6 μl CDK9/cyclin T1/substrate working solution and 2 μl ATP working solution. Positive and negative controls were calculated from at least 8 different wells. The 384 well plates were mixed in a Teleshaker plate mixer (Beckman Coulter, Brea, Calif., USA) at 2000 rpm for 40 sec, and incubated for 1 h at room temperature before addition of 10 μl LANCE Detection Buffer (1×; EDTA: […]; Eu-Anti-P-MBP: 4 nM) per well. Plates were mixed in a Teleshaker plate mixer (Beckman Coulter, Brea, Calif., USA) at 2000 rpm for 40 sec, followed by incubation with Detection Buffer for 1 h, and reading. […] IC50 values were determined from the sigmoidal dose response curves with the software Quattro Workflow (Quattro GmbH, Munich, Germany).

The next experiment deals with T1, CDK2/CycA (Homo sapiens, UniProt P24941).
T1 construct: purchased Proqinase
Description: CDK2 Enzymatic Activity Assay (Lance Kinase Activity Assay, FRET). The note with it: for IC50: Table 5B, class symbols per IC50 [nM] ranges of b581, read-out: CDK2: Selectivity of CDK7 inhibition over CDK2 inhibition. The protocol:
as §1, §2
CDK2 Enzymatic Activity Assay
as §3
as §4, with “CDK2/CycA/substrate” for “CDK9/cyclin T1/substrate”, “(EDTA:” for “(1×; EDTA:”

The target in another experiment is CDK7/CycH/Mat1 (Homo sapiens, UniProt P50613). In words: CDK7 Enzymatic Activity Assay (Lance Kinase Activity Assay, FRET). To be noted: CDK7/CycH/Mat1, 25 μM ATP final; class ranges; read-out: CDK7: IC50 [nM] for CDK7 inhibition. The protocol: as §1, §2
CDK7/CycH/Mat1, sequence (P50613 whole entry): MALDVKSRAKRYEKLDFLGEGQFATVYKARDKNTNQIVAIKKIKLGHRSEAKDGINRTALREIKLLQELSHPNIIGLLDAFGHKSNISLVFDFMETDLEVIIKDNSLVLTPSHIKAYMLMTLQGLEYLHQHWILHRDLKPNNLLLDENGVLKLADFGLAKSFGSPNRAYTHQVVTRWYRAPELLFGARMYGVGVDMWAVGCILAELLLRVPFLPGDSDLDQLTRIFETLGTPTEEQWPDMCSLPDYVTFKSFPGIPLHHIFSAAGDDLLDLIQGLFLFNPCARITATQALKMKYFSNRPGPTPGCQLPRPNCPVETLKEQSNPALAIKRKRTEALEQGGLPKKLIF
CDK7 Enzymatic Activity Assay
as §3
as §4, with “CDK7/CycH/Mat1/substrate” for “CDK9/cyclin T1/substrate”

CDK9/Cyclin T1, sequence (P50750 whole entry): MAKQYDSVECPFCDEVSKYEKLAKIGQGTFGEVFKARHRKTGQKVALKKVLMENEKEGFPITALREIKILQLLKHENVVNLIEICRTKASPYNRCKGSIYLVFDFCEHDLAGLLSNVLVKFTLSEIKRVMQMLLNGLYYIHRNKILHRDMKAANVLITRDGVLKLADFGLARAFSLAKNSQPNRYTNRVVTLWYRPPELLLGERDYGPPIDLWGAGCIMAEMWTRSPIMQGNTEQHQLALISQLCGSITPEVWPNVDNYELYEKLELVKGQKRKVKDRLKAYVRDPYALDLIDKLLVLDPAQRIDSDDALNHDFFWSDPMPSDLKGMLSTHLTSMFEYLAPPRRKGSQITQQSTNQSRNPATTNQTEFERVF
CDK9/Cyclin T1, sequence (O60563 whole entry partner): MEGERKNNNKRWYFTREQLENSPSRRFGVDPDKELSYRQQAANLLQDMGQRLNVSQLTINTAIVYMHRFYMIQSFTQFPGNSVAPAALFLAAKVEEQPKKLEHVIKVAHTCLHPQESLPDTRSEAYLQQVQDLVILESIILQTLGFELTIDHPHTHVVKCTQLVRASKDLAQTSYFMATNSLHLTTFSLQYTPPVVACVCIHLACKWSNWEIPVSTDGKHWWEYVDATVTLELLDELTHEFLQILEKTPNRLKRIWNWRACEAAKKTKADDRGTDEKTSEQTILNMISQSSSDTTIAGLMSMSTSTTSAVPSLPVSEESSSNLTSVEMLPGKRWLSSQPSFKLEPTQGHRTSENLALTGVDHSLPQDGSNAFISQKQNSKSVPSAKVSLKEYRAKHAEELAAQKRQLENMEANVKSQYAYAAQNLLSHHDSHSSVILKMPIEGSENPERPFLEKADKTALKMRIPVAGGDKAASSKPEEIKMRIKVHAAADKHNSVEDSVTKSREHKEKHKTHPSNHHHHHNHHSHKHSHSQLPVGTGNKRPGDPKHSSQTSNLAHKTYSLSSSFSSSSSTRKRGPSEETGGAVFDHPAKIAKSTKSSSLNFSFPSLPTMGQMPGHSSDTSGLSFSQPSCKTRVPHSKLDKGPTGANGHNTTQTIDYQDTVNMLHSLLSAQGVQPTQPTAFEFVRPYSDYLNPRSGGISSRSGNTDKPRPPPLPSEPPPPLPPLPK

As to `CC(C)c1cnn2c(NCc3ccccc3-n3cccn3)nc(C(=O)N3CC4(CNC4)C3)nc12` [(XII-07), (4-((2-(1H-pyrazol-1-yl)benzyl)amino)-8-isopropylpyrazolo[1,5-a][1,3,5]triazin-2-yl)(2,6-diazaspiro[3.3]heptan-2-yl)methanone], the IC50 is above 2500 nM on CDK9/Cyclin T1, above 2500 nM at CDK2/CycA and above 25 nM at CDK7/CycH/Mat1.

Turning to `CC(C)c1cnn2c(NCc3ccccc3-n3cccn3)nc(CNCCN3CCOCC3)nc12` [(XXX-5), N-(2-(1H-pyrazol-1-yl)benzyl)-8-isopropyl-2-(((2-morpholinoethyl)amino)methyl)pyrazolo[1,5-a][1,3,5]triazin-4-amine], the IC50 was above 2500 nM at CDK9/Cyclin T1, above 2500 nM on CDK2/CycA and above 25 nM at CDK7/CycH/Mat1.

For the compound `CC(C)c1cnn2c(NCc3cccc4cccnc34)nc(O[C@@H]3CCCNC3)nc12` [(VII-35), (R)-8-isopropyl-2-(piperidin-3-yloxy)-N-(quinolin-8-ylmethyl)pyrazolo[1,5-a][1,3,5]triazin-4-amine], the IC50 is 50 to 500 nM on CDK9/Cyclin T1, 50 to 500 nM on CDK2/CycA and below 5 nM at CDK7/CycH/Mat1.

As for `CN1CC[C@H](c2c(O)cc(O)c3c(=O)cc(-c4ccccc4Cl)oc23)[C@H](O)C1` [Flavopiridol, reference compound], the “multiplicity of the CDK9 activity in terms of the CDK7 activity” value at CDK9/Cyclin T1 (selectivity CDK9 vs CDK7, enzymatic IC50 values) is given as “even lower than the CDK 7 activity”. Also, the “multiplicity of the CDK2 activity in terms of the CDK7 activity” value at CDK2/CycA (selectivity CDK2 vs CDK7, enzymatic IC50 values) is recorded as “even lower than the CDK 7 activity”.

Turning to `Cc1nccn1-c1ccccc1CNc1nc(O[C@@H]2CCCNC2)nc2c(C(C)C)cnn12` [(VII-23), (R)-8-isopropyl-N-(2-(2-methyl-1H-imidazol-1-yl)benzyl)-2-(piperidin-3-yloxy)pyrazolo[1,5-a][1,3,5]triazin-4-amine], the IC50 at CDK2/CycA was 500 to 2500 nM; on CDK7/CycH/Mat1, below 5 nM.

On to `CC(C)c1cnn2c(NCc3ccccc3C(F)(F)F)nc(OC3CCN(C)CC3)nc12` [VII-058, 8-isopropyl-2-((1-methylpiperidin-4-yl)oxy)-N-(2-(trifluoromethyl)benzyl)pyrazolo[1,5-a][1,3,5]triazin-4-amine], for which the IC50 on CDK9/Cyclin T1 and on CDK2/CycA was above 2500 nM throughout.

Regarding `CC(C)c1cnn2c(NCc3ccccc3-n3cccn3)nc(N3CCC4(CNC4)C3)nc12` [(VIII-07), N-(2-(1H-pyrazol-1-yl)benzyl)-8-isopropyl-2-(2,6-diazaspiro[3.4]octan-6-yl)pyrazolo[1,5-a][1,3,5]triazin-4-amine], the results for the IC50 on CDK9/Cyclin T1 and at CDK7/CycH/Mat1 were above 2500 nM and below 5 nM, respectively.

`CC(C)c1cnn2c(NCc3ccccc3-c3cccnc3)nc(O[C@@H]3CCCNC3)nc12` [(VII-46), (R)-8-isopropyl-2-(piperidin-3-yloxy)-N-(2-(pyridin-3-yl)benzyl)pyrazolo[1,5-a][1,3,5]triazin-4-amine]: the values for the IC50 on CDK9/Cyclin T1 and on CDK7/CycH/Mat1 were above 2500 nM and below 5 nM, respectively.

For `CC(C)NS(=O)(=O)c1ccccc1CNc1nc(O[C@@H]2CCCNC2)nc2c(C(C)C)cnn12` [(VII-105), (R)-N-isopropyl-2-(((8-isopropyl-2-(piperidin-3-yloxy)pyrazolo[1,5-a][1,3,5]triazin-4-yl)amino)methyl)benzenesulfonamide], the IC50 at CDK9/Cyclin T1 was above 2500 nM; on CDK7/CycH/Mat1, above 25 nM.

For the compound `CC(C)c1cnn2c(NCc3ccccc3-n3cccn3)nc(N3CCC34CCNCC4)nc12` [(VIII-34), N-(2-(1H-pyrazol-1-yl)benzyl)-8-isopropyl-2-(1,7-diazaspiro[3.5]nonan-1-yl)pyrazolo[1,5-a][1,3,5]triazin-4-amine], the figures for the IC50 on CDK9/Cyclin T1 and on CDK7/CycH/Mat1 were above 2500 nM and below 5 nM, respectively.

For `CC(C)c1cnn2c(NCc3ccccc3-n3cccn3)nc(OC3CNC3)nc12` [VII-141, N-(2-(1H-pyrazol-1-yl)benzyl)-2-(azetidin-3-yloxy)-8-isopropylpyrazolo[1,5-a][1,3,5]triazin-4-amine], the IC50 at CDK9/Cyclin T1 is above 2500 nM; on CDK2/CycA, 500 to 2500 nM.

For the compound `CC(C)c1cnn2c(NCc3ccccc3-c3nnn(C)n3)nc(N3CCC4(CCCN4)CC3)nc12` [(VIII-19), 8-isopropyl-N-(2-(2-methyl-2H-tetrazol-5-yl)benzyl)-2-(1,8-diazaspiro[4.5]decan-8-yl)pyrazolo[1,5-a][1,3,5]triazin-4-amine], the figures for the IC50 on CDK9/Cyclin T1 and at CDK7/CycH/Mat1 were above 2500 nM and below 5 nM, respectively.

Take `Cc1ccccc1CNc1nc(OC2CCN(C)CC2)nc2c(C(C)C)cnn12` [(VII-53), 8-isopropyl-N-(2-methylbenzyl)-2-((1-methylpiperidin-4-yl)oxy)pyrazolo[1,5-a][1,3,5]triazin-4-amine]: the IC50 at CDK9/Cyclin T1 was 50 to 500 nM; on CDK7/CycH/Mat1, 5 to 10 nM.

For the compound `CC(C)c1cnn2c(NCc3ccccc3-n3cccn3)nc(N3CC4(CCCNC4)C3)nc12` [(VIII-05), N-(2-(1H-pyrazol-1-yl)benzyl)-8-isopropyl-2-(2,6-diazaspiro[3.5]nonan-2-yl)pyrazolo[1,5-a][1,3,5]triazin-4-amine], the IC50 at CDK9/Cyclin T1 is above 2500 nM; at CDK7/CycH/Mat1, below 5 nM.

As to `CC(C)c1cnn2c(NCc3ccccc3-n3cccn3)nc(N3CCC4(CCNC4)C3)nc12` (stereo not drawn) [(VIII-03), N-(2-(1H-pyrazol-1-yl)benzyl)-8-isopropyl-2-(2,7-diazaspiro[4.4]nonan-2-yl)pyrazolo[1,5-a][1,3,5]triazin-4-amine], the IC50 at CDK9/Cyclin T1 is above 2500 nM; at CDK7/CycH/Mat1 it was below 5 nM.

For `CC(C)c1cnn2c(NCc3ccccc3-n3cccn3)nc(N3CC4(CNC4)C3)nc12` [(VIII-10), N-(2-(1H-pyrazol-1-yl)benzyl)-8-isopropyl-2-(2,6-diazaspiro[3.3]heptan-2-yl)pyrazolo[1,5-a][1,3,5]triazin-4-amine], the results for the IC50 on CDK9/Cyclin T1 and on CDK7/CycH/Mat1 were above 2500 nM and 5 to 10 nM, respectively.

For the compound `CC(C)c1cnn2c(NCc3ccccc3-n3cccn3)nc(N3CCCC4(CCCNC4)C3)nc12` (stereo not drawn) [(VIII-14), N-(2-(1H-pyrazol-1-yl)benzyl)-8-isopropyl-2-(2,8-diazaspiro[5.5]undecan-2-yl)pyrazolo[1,5-a][1,3,5]triazin-4-amine], the figures for the IC50 on CDK9/Cyclin T1 and on CDK7/CycH/Mat1 were above 2500 nM and 10 to 25 nM, respectively.

Regarding `COc1ccccc1[C@H](C)Nc1nc(N[C@@H]2CCCNC2)nc2c(C(C)C)cnn12` [(VIII-31), 8-isopropyl-N4-((S)-1-(2-methoxyphenyl)ethyl)-N2-((R)-piperidin-3-yl)pyrazolo[1,5-a][1,3,5]triazine-2,4-diamine], the IC50 on CDK9/Cyclin T1 is above 2500 nM; at CDK7/CycH/Mat1, 5 to 10 nM.

Consider `CC(C)c1cnn2c(NCc3ccccc3-n3cncn3)nc(O[C@@H]3CCCNC3)nc12` [(VII-20), (R)-N-(2-(1H-1,2,4-triazol-1-yl)benzyl)-8-isopropyl-2-(piperidin-3-yloxy)pyrazolo[1,5-a][1,3,5]triazin-4-amine], for which the IC50 at CDK9/Cyclin T1 was 500 to 2500 nM; at CDK7/CycH/Mat1, below 5 nM.

For the compound `Cc1nccn1-c1ccccc1CNc1nc(OC2CCNCC2)nc2c(C(C)C)cnn12` [(VII-24), 8-isopropyl-N-(2-(2-methyl-1H-imidazol-1-yl)benzyl)-2-(piperidin-4-yloxy)pyrazolo[1,5-a][1,3,5]triazin-4-amine], the figures for the IC50 at CDK9/Cyclin T1 and at CDK7/CycH/Mat1 were above 2500 nM and below 5 nM, respectively.

With `CC(C)Oc1ccccc1CNc1nc(OC2CCN(C)CC2)nc2c(C(C)C)cnn12` [(VII-66), N-(2-isopropoxybenzyl)-8-isopropyl-2-((1-methylpiperidin-4-yl)oxy)pyrazolo[1,5-a][1,3,5]triazin-4-amine], the figures for the IC50 at CDK9/Cyclin T1 and at CDK7/CycH/Mat1 were above 2500 nM and below 5 nM, respectively.

Source of the values: US9567345B2, “Pharmaceutically active pyrazolo-triazine derivatives” (LEAD DISCOVERY CENTER GMBH, priority 2012, dated 2017).
